Data set [1] in a line: In vivo pharmacokinetic study of ponatinib in rats (plasma by HPLC-FLD, non-compartmental analysis). Further details: species or system Male SD rats. The conditions noted are these: male, rat; for half-life: n = 3, read-out: T1/2 (terminal half-life) (converted). The procedure: Animal experiments were conducted following the guidelines of the Korea Research Institute of Bioscience and Biotechnology (KRIBB-AEC-20309). Male SD rats (Koatech Inc.; Pyeongtaek, Gyeonggi, Republic of Korea) were acclimated to laboratory conditions for at least one week before experimentation. Animals were permitted ad libitum access to food and water, except during the 8 h fasting period before drug administration; however, water was continuously available.
Rats were administered ponatinib, prepared in a DMAC, cremophor EL, and 20 % HPβCD) in water (10:10:80) for intravenous (IV; 4 mg/kg) and oral administration (7.5 mg/kg). Blood samples (approximately 100 μL) were collected in lithium heparin-treated tubes through the jugular vein at 5, 15, and 30 min, and 1, 3, 6, 12, 24, 36, and 48 h for the IV group (n = 3) and at 30 min and 1, 2, 4, 6, 8, 12, 24, 36, and 48 h post-dose for the oral group (n = 3). The samples were centrifuged at 13,500×g for 10 min at 4 °C. Plasma was stored at −20 °C until analysis.
Plasma ponatinib concentrations were determined using the HPLC-FLD method developed in this study. Pharmacokinetic parameters were calculated using non-compartmental analysis via WinNonlin software (Pharsight Corporation, Mountain View, CA, USA). The key parameters were the area under the plasma concentration-time curve from zero to the last quantifiable time point (AUClast) and infinity (AUCinf), both of which were calculated using the linear trapezoidal method. The terminal half-life (T1/2) was derived from the elimination constant at the terminal phase (λ), and total clearance (CL) and the steady-state volume of distribution (Vss) were calculated. The maximum plasma concentration (Cmax) and time to reach Cmax (Tmax) were obtained directly from the plasma concentration-time graph. The oral bioavailability (F) was determined by dividing the dose-normalized AUCinf value following oral administration by that following IV administration.

Data set [2] in a line: Stability of ponatinib in rat plasma under storage conditions. In kind it is in vitro ADME. The following applies: for Stability (%, mean ± SD): n = 3. The procedure: The stability of ponatinib in rat plasma was determined under various conditions using LQC and HQC samples in triplicate. The stability tests included bench-top exposure at room temperature for 2 h, long-term storage at −20 °C for 3 weeks, three freeze-thaw cycles, and 24-h autosampler storage at 10 °C. The stability of ponatinib was determined by comparing the measured concentrations with nominal values.

Molecules are shown by their SMILES. Read-outs that look alike come from different tables or passages of the source.

For `Cc1ccc(C(=O)Nc2ccc(CN3CCN(C)CC3)c(C(F)(F)F)c2)cc1C#Cc1cnc2cccnn12` [ponatinib, Ponatinib], the bioavailability in data set [1] (SD, PO 7.5 mg/kg vs IV 4 mg/kg, dose-normalized AUCPO/AUCIV × 100, read-out: F (oral bioavailability)) came to 48.2 ± 3.9%. For the same compound, the area under the curve AUC(0-inf) in data set [1] (IV 4 mg/kg, mean ± SD, n = 3) was 6.14 ± 0.75 µg·h/mL; in data set [1] (PO 7.5 mg/kg, mean ± SD, n = 3) it was 5.52 ± 0.28 µg·h/mL. Further, the AUC(0-t) in data set [1] (IV 4 mg/kg, mean ± SD, n = 3) turned out to be 6.1 ± 0.73 µg·h/mL; in data set [1] (PO 7.5 mg/kg, mean ± SD, n = 3), 5.4 ± 0.27 µg·h/mL. The clearance in data set [1] (IV 4 mg/kg, mean ± SD, n = 3, read-out: CL (total clearance) (converted)) is 0.657 L/h/kg. Also, the half-life in data set [1] (IV 4 mg/kg, mean ± SD) was 6.84 ± 0.22 h; in data set [1] (PO 7.5 mg/kg, mean ± SD) it was 8.75 ± 0.67 h. Further, the Vd in data set [1] (IV 4 mg/kg, mean ± SD, n = 3, read-out: Vss (steady-state volume of distribution)) came out at 5.39 ± 0.2 L/kg. This compound also yielded a Cmax in data set [1] (PO 7.5 mg/kg, mean ± SD, n = 3) of 0.308 ± 0.011 µg/mL. Moreover, the Tmax in data set [1] (PO 7.5 mg/kg, mean ± SD, n = 3) is 5.34 ± 2.31 h. Moreover, the “Stability (%, mean ± SD)” value is listed as 95.2 ± 11.1% in data set [2] (processed rat plasma, autosampler (10 °C for 24 h), HQC 800 ng/mL); 93.4 ± 1.3% in data set [2] (processed rat plasma, autosampler (10 °C for 24 h), LQC 3 ng/mL); 91.5 ± 2.1% in data set [2] (rat plasma, bench top (room temperature for 2 h), HQC 800 ng/mL); 108 ± 6% in data set [2] (rat plasma, bench top (room temperature for 2 h), LQC 3 ng/mL); 92.1 ± 5.0% in data set [2] (rat plasma, freeze-thaw (3 cycles), HQC 800 ng/mL); 89.1 ± 7.0% in data set [2] (rat plasma, freeze-thaw (3 cycles), LQC 3 ng/mL). Moreover, the “Stability (%, mean ± SD)” value in data set [2] (rat plasma, long term (−20 °C for 3 weeks), HQC 800 ng/mL) is given as 96.4 ± 4.3%; in data set [2] (rat plasma, long term (−20 °C for 3 weeks), LQC 3 ng/mL) it was 93.1 ± 7.9%. The “Stability, range over LQC and HQC” value in data set [2] (rat plasma, room temperature for 2 h) is listed as 91.5 % to 108.

As a reminder, the bioavailability is the share of a dose that reaches the circulation, judged against a reference dose that is usually intravenous. The AUC(0-inf) is the area under the concentration-time curve extrapolated to infinity. Low readings indicate less exposure, high ones more exposure. As a reminder, the AUC(0-t) is exposure summed from dosing to a finite time, without extrapolation to infinity. For orientation: clearance means the volume of plasma or blood freed of the substance per unit of time. As usually defined, the Cmax is the highest concentration seen after dosing. Usually Tmax stands for the time from dosing to the highest level.
